Laboratory results from patent US11974574B2, “Compositions and related methods for modulating endosymbionts” (Flagship Pioneering Innovations V, Inc., priority 2017, dated 2024).
{Cy3} = Cy3 dye attached by click chemistry

What was measured:
[1] = tested on: its target bacterial strains; conditions: against its target bacterial strains; cited from earlier work
[2] = tested on: Myzus persicae; assay: Cy3-PNA in artificial diet, aphid survival (Example 13); type: in vivo; conditions: Myzus persicae second and third instar, final 0.5 to 10 mg/L Cy3-PNA, fed 24 hr, mortality checked every 24 h for 4 days
Protocol: Therapeutic Design: Cy3-PNA Solutions are Formulated with 0, 0.5, 1, 5 or 10 mg/L of Cy3-PNA from Example 11 in 10 mL of 0.5% Sucrose and Essential Amino Acids.
(§1) To prepare for the treatment, aphids are grown in a lab environment and medium. In a climate-controlled room (16 h light photoperiod; 60±5% RH; 20±2° C.), plants are grown in a mixture of vermiculite and perlite and are infested with aphids. To limit maternal effects or health differences between plants, 5-10 adults from different plants are distributed among 10 two-week-old plants, and allowed to multiply to high density for 5-7 days. For experiments, second and third instar aphids are collected from healthy plants and divided into treatments so that each treatment receives approximately the same number of individuals from each of the collection plants.
Wells of a 96-well plate are filled with 200 μl of artificial aphid diet (Febvay et al., Canadian Journal of Zoology 66(11):2449-2453, 1988) and the plate is covered with parafilm to make a feeding sachet. Artificial diet is either mixed with the solution of sterile water with 0.5% sucrose and essential amino acids only as a negative control, or mixed with Cy3-PNA solutions. Cy3-PNA solutions are mixed with artificial diet to obtain final concentrations between 0.5 to 10 mg/L. […]

[3] = tested on: Myzus persicae; assay: Bcr1 dsRNA in artificial diet, aphid survival (Example 9); type: in vivo; conditions: Myzus persicae second and third instar, final 0.5 to 5 μg/ml dsRNA, fed 24 hr, mortality checked every 24 h for 4 days
Protocol: Aphids are one of the most important agricultural insect pests. They cause direct feeding damage to crops and serve as vectors of plant viruses. In addition, aphid honeydew promotes the growth of sooty mold and attracts nuisance ants. The use of chemical treatments, unfortunately still widespread, leads to the selection of resistant individuals whose eradication becomes increasingly difficult. Therapeutic design: dsRNA solutions are formulated with 0 (negative control), 0.5, 1, or 5 μg/mL of Bcr1 dsRNA from Example 7 in 10 mL of TE buffer with 0.5% sucrose and essential amino acids.
as §1, with “(16 hr” for “(16 h”, “plants. […]” for “plants.”

[4] = tested on: Rhopalosiphum maidis; assay: Bcr1 dsRNA in artificial diet, aphid survival (Example 3); type: in vivo; conditions: Rhopalosiphum maidis second and third instar, final 0.5 to 5 μg/ml dsRNA, fed 24 hr, mortality checked every 24 h for 4 days
Protocol: Aphids are one of the most important agricultural insect pests. They cause direct feeding damage to crops and serve as vectors of plant viruses. In addition, aphid honeydew promotes the growth of sooty mold and attracts nuisance ants. The use of chemical treatments, unfortunately still widespread, leads to the selection of resistant individuals whose eradication becomes increasingly difficult. Therapeutic design: dsRNA solutions are formulated with 0 (negative control), 0.5, 1, or 5 μg/ml of Bcr1 dsRNA from Example 2 in 10 mL of TE buffer with 0.5% sucrose and essential amino acids.
as §1, with “C.), fava bean” for “C.),”, “plants. […]” for “plants.”

With “ITSISLCTPGCKTGALMGCNMKTATCHCSIHVSK [nisin]” as the molecule, how does the “concentration showing antimicrobial activity” value [1] read?
Its value is “single-digit nanomolar concentration”.

With “Cy3-Gaatgcagctgc (antisense GAATGCAGCTGC; all peptide nucleic acid (PNA), 5' {Cy3}; Cy3 attached via DBCO-azide click chemistry) [Cy3-PNA, antisense PNA against bacteriocyte target gene Bcr1 joined to Cy3 dye through click chemistry]” as the molecule, how does the “survival rate of aphids compared to the control treated aphids” value [2] read?
The value was “decreased”.

B1: Bcr1 dsRNA: dsRNA hairpin targeting the Bcr1 gene (ACYPI32128), SEQ ID NO: 93 (nucleic acid, listed as Acyrthosiphon pisum)
chain: AUGAAACUGCUGCAUGGCUUUCUGAUUAUUAUGCUGACCAUGCAUCUGAGCAUUCAGUAUGCGUAUGGCGGCCCGUUUCUGACCAAAUAUCUGUGCGAUCGCGUGUGCCAUAAACUGUGCGGCGAUGAAUUUGUGUGCAGCUGCAUUCAGUAUAAAAGCCUGAAAGGCCUGUGGUUUCCGCAUUGCCCGACCGGCAAAGCGAGCGUGGUGCUGCAUAACUUUCUGACCAGCCCGUUUUUUUUUUCGGGCUGGUCAGAAAGUUAUGCAGCACCACGCUCGCUUUGCCGGUCGGGCAAUGCGGAAACCACAGGCCUUUCAGGCUUUUAUACUGAAUGCAGCUGCACACAAAUUCAUCGCCGCACAGUUUAUGGCACACGCGAUCGCACAGAUAUUUGGUCAGAAACGGGCCGCCAUACGCAUACUGAAUGCUCAGAUGCAUGGUCAGCAUAAUAAUCAGAAAGCCAUGCAGCAGUUUCAU
For B1, which “survival rate of aphids compared to the control treated aphids” value [3] is on record?
The value was “decreased”.

What about the “survival rate of aphids compared to the control treated aphids” value [4] of the same molecule?
The value was “decreased”.
